Test results: US8987474B2 (University of South Florida, priority 2006, dated 2015)
Where “and” joins values, the source holds several entries; their conditions need not be identical. Identical values can stand only once.

Target: Shp2 (Homo sapiens (Human), UniProt Q06124)
Experiment: PTP activity assay (DiFMUP substrate) with GST-Shp2
Format: biochemical
Settings: for % PTP activity: at 20 μM; for IC50: Table II, Shp2
From the text: All constructs were verified by DNA sequencing.
Recombinant DEP1 was from Abcam.

Chain of Shp2 (Q06124 205-593): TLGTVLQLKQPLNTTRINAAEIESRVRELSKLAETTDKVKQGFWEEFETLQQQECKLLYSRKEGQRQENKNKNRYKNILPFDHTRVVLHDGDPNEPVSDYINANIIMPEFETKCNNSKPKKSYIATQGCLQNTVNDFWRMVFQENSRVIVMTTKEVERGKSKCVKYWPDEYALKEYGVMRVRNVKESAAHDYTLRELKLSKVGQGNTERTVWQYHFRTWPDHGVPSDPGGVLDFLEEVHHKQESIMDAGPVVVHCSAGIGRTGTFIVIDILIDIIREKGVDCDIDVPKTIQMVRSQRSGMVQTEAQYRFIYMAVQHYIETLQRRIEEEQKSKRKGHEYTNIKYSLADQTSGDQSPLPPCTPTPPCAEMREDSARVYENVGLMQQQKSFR

| Compound | % PTP activity | IC50 |
| --- | --- | --- |
| COC(=O)c1ccc2cc(C(=O)Nc3ccc(S(N)(=O)=O)cc3)ccc2c1 [RPM187] | 66 ± 4% (3) at 20 uM |  |
| NS(=O)(=O)c1ccc2c(c1)/C(=N/Nc1ccccc1C(=O)O)C(=O)N2 [RPM188, 2-[N′-(2-Oxo-5-sulfamoyl-1,2-dihydro-indol-3-ylidene)hydrazino]benzoic acid] | 65 ± 3% (3) at 20 μM |  |
| O=C1Nc2ccc(S(=O)(=O)NCc3ccc(Cl)cc3)cc2/C1=N/Nc1ccccc1C(=O)O [RPM191, 2-[N′-[5-(4-Chloro-benzylsulfamoyl)-2-oxo-1,2-dihydro-indol-3-ylidene]hydrazino}benzoic acid] | 65.07% and 53.99% | 33 to 100 µM |
| O=C(O)c1ccc(NC(=O)c2ccc3cc(C(=O)O)ccc3c2)cc1 [RPM194] | 69 ± 7.5% (3) at 20 uM |  |
| NS(=O)(=O)c1ccc(NC(=O)c2ccc3cc(C(=O)O)ccc3c2)cc1 [RPM195] | 54 ± 6% (3) at 20 uM |  |
| COC(=O)c1ccc2cc(C(=O)Nc3c(O)cccc3C(=O)O)ccc2c1 [RPM202] | 58 ± 7% (3) at 20 uM | 33 to 100 µM |
| O=C(O)c1ccc2cc(C(=O)Nc3c(O)cccc3C(=O)O)ccc2c1 [RPM204] | 68 ± 5% (3) at 20 uM | 33 to 100 µM |
| O=C1Nc2ccc(S(=O)(=O)O)cc2/C1=N/Nc1ccccc1C(=O)O [RPM211, 2-[N′-(2-Oxo-5-sulfo-1,2-dihydro-indol-3-ylidene)hydrazino]benzoic acid] | 67 ± 8% at 20 μM | 33 to 100 µM |
| O=C1Nc2ccc(S(=O)(=O)O)cc2/C1=N/Nc1ccccc1 [RPM215, 2-Oxo-3-(phenylhydrazono)-2,3-dihydro-1H-indole-5-sulfonic acid] | 51 ± 3% (3) at 20 μM |  |
| Cc1ccccc1N/N=C1\C(=O)Nc2ccc(S(=O)(=O)O)cc21 [RPM216, 2-Oxo-3-[(2-methylphenylhydrazono)]-2,3-dihydro-1H-indole-5-sulfonic acid] | 50 ± 14% (3) at 20 μM |  |
| O=C1Nc2ccc(S(=O)(=O)O)cc2/C1=N/Nc1c(Cl)cccc1Cl [RPM218, 2-Oxo-3-[(2,6-dichlorophenylhydrazono)]-2,3-dihydro-1H-indole-5-sulfonic acid] | 53 ± 0.1% (2) at 20 μM | 33 to 100 µM |
| CCc1ccccc1N/N=C1\C(=O)Nc2ccc(S(=O)(=O)O)cc21 [RPM219, 2-Oxo-3-[(2-ethylphenylhydrazono)]-2,3-dihydro-1H-indole-5-sulfonic acid] | 89 ± 2% (3) at 20 μM | 33 to 100 µM |
| O=C1Nc2ccc(S(=O)(=O)O)cc2/C1=N/Nc1ccccc1F [RPM220, 2-Oxo-3-[(2-fluorophenylhydrazono)]-2,3-dihydro-1H-indole-5-sulfonic acid] | 73 ± 10% (3) at 20 μM |  |
| O=C1Nc2ccc(S(=O)(=O)O)cc2/C1=N/Nc1ccccc1C(F)(F)F [RPM221, 2-Oxo-3-[(2-trifluoromethylphenylhydrazono)]-2,3-dihydro-1H-indole-5-sulfonic acid] | 63 ± 4% (3) at 20 μM | 33 to 100 µM |
| O=C1Nc2ccc(S(=O)(=O)O)cc2/C1=N/Nc1c(F)c(F)c(F)c(F)c1F [RPM222, 2-Oxo-3-(pentafluorophenylhydrazono)-2,3-dihydro-1H-indole-5-sulfonic acid] | 58 ± 6% (3) at 20 μM | 33 to 100 µM |
| O=C1Nc2ccc(S(=O)(=O)O)cc2/C1=N/Nc1cccc2ccccc12 [RPM223, 3-(Naphthalen-1-ylhydrazono)-2-oxo-2,3-dihydro-1H-indole-5-sulfonic acid] | 76 + 12% at 20 μM | 33 to 100 µM |
| O=C1Nc2ccc(S(=O)(=O)O)cc2/C1=N/Nc1ccc(Cl)cc1Cl [RPM224, 2-Oxo-3-[(2,4-dichlorophenylhydrazono)]-2,3-dihydro-1H-indole-5-sulfonic acid] | 81 ± 10% (3) at 20 μM | 33 to 100 µM |
| O=C1Nc2ccc(S(=O)(=O)O)cc2/C1=N/Nc1cc(Cl)ccc1Cl [RPM225, 2-Oxo-3-[(2,5-dichlorophenylhydrazono)]-2,3-dihydro-1H-indole-5-sulfonic acid] | 73 ± 22% at 20 μM | 33 to 100 µM |
| O=C1Nc2ccc(C(=O)O)cc2/C1=N/Nc1ccccc1Cl [RPM270] | 45 ± 18% (2) At 20 μM | 33 to 100 µM |

| Compound | % PTP activity | IC50 |
| --- | --- | --- |
| O=C1Nc2ccc(C(=O)O)cc2/C1=N/Nc1ccccc1 [RPM272, 3-(Phenylhydrazono)-2-oxo-2,3-dihydro-1H-indole-5-carboxylic acid] | 43 ± 4% at 20 μM |  |
| CC(C)NS(=O)(=O)c1ccc2c(c1)/C(=N/Nc1ccccc1)C(=O)N2 [RPM275, 3-(Phenylhydrazono)-2-oxo-2,3-dihydro-1H-indole-5-sulfonic acid isopropylamide] | 58.53% (1) at 20 μM |  |
| CC(C)NS(=O)(=O)c1ccc2c(c1)/C(=N/Nc1ccccc1C(N)=O)C(=O)N2 [RPM283, 2-[N′-(5-Isopropylsulfamoyl-2-oxo-1,2-dihydro-indol-3-ylidene)hydrazino]benzamide] | 52 ± 7% (2) At 20 μM |  |
| CC(C)NS(=O)(=O)c1ccc2c(c1)/C(=N/Nc1ccccc1C(=O)NCCN(C)C)C(=O)N2 [RPM284, N-(2-Dimethylaminoethyl)-2-[N′-(5-isopropylsulfamoyl-2-oxo-1,2-dihydro-indol-3-ylidene)hydrazino]benzamide] | 47 ± 6% (2) At 20 μM |  |
| COCCNC(=O)c1ccccc1N/N=C1\C(=O)Nc2ccc(S(=O)(=O)NC(C)C)cc21 [RPM285, 2-[N′-(5-Isopropylsulfamoyl-2-oxo-1,2-dihydro-indol-3-ylidene)-hydrazino]-N-(2-methoxyethyl)benzamide] | 51 ± 7% (2) At 20 μM |  |
| CC(C)NS(=O)(=O)c1ccc2c(c1)/C(=N/Nc1ccccc1C(=O)NCc1ccccc1)C(=O)N2 [RPM287, N-Benzyl-2-[N′-(5-isopropylsulfamoyl-2-oxo-1,2-dihydro-indol-3-ylidene)hydrazino]benzamide] | 48 ± 10% (2) At 20 μM |  |
| CCOC(=O)c1ccc(N/C=C2\C(=O)Nc3ccc(S(=O)(=O)NC(C)C)cc32)cc1 [RPM288, 4-[(5-Isopropylsulfamoyl-2-oxo-1,2-dihydro-indol-3-ylidenemethyl)amino]benzoic acid ethyl ester] | 30 ± 2% (2) at 20 μM |  |
| CC(C)NS(=O)(=O)c1ccc2c(c1)/C(=N/Nc1ccccc1C(=O)NCc1cccnc1)C(=O)N2 [RPM290, 2-[N′-(5-Isopropylsulfamoyl-2-oxo-1,2-dihydro-indol-3-ylidene)hydrazino]-N-pyridin-3-ylmethylbenzamide] | 46 ± 2% (2) At 20 μM | 33 to 100 µM |
| CC(C)NS(=O)(=O)c1ccc2c(c1)/C(=N/Nc1ccccc1C(=O)NCc1ccco1)C(=O)N2 [RPM292, N-Furan-2-ylmethyl-2-[N′-(5-isopropylsulfamoyl-2-oxo-1,2-dihydro-indol-3-ylidene)hydrazino]benzamide] | 47 ± 7% (20 At 20 μM | 33 to 100 µM |
| CC(C)NS(=O)(=O)c1ccc2c(c1)/C(=N/Nc1ccccc1C(=O)NCCN1CCOCC1)C(=O)N2 [RPM293, 2-[N′-(5-Isopropylsulfamoyl-2-oxo-1,2-dihydro-indol-3-ylidene)hydrazino]-N-(2-morpholin-4-yl-ethyl)benzamide] | 49 ± 6% (2) At 20 μM |  |
| CC(C)NS(=O)(=O)c1ccc2c(c1)/C(=N/Nc1ccccc1C(=O)N(C)C)C(=O)N2 [RPM294, 2-[N′-(5-Isopropylsulfamoyl-2-oxo-1,2-dihydro-indol-3-ylidene)hydrazino]-N,N-dimethylbenzamide] | 48 ± 0% (2) At 20 μM |  |
| CNC(=O)c1ccccc1N/N=C1\C(=O)Nc2ccc(S(=O)(=O)NC(C)C)cc21 [RPM295, 2-[N′-(5-Isopropylsulfamoyl-2-oxo-1,2-dihydro-indol-3-ylidene)hydrazino]-N-methylbenzamide] | 43 ± 2% (2) At 20 μM |  |
| CCNC(=O)c1ccccc1N/N=C1\C(=O)Nc2ccc(S(=O)(=O)NC(C)C)cc21 [RPM296, N-Ethyl-2-[N′-(5-isopropylsulfamoyl-2-oxo-1,2-dihydro-indol-3-ylidene)hydrazino]benzamide] | 48 ± 2% (2) At 20 μM |  |
| CCOC(=O)c1cccc(N/C=C2\C(=O)Nc3ccc(S(=O)(=O)NC(C)C)cc32)c1 [RPM302, 3-[(5-Isopropylsulfamoyl-2-oxo-1,2-dihydro-indol-3-ylidenemethyl)amino]benzoic acid ethyl ester] | 51 ± 7% (2) at 20 μM | 33 to 100 µM |
| CC(C)NS(=O)(=O)c1ccc2c(c1)/C(=C/Nc1ccccc1[N+](=O)[O-])C(=O)N2 [RPM303, 3-[(2-Nitrophenylamino)methylene]-2-oxo-2,3-dihydro-1H-indole-5-sulfonic acid isopropylamide] | 46 ± 1% (2) 20 μM |  |
| CC(C)NS(=O)(=O)c1ccc2c(c1)/C(=C/Nc1cccc(C(=O)O)c1)C(=O)N2 [RPM304, 3-[(5-Isopropylsulfamoyl-2-oxo-1,2-dihydro-indol-3-ylidenemethyl)amino]benzoic acid] | 82.31% (1) At 20 μM | 33 to 100 µM |
| CC(C)NS(=O)(=O)c1ccc2c(c1)/C(=C/Nc1ccc(C(=O)O)cc1)C(=O)N2 [RPM305, 4-[(5-Isopropylsulfamoyl-2-oxo-1,2-dihydro-indol-3-ylidenemethyl)amino]benzoic acid] | 56.77% (1) at 20 μM | 33 to 100 µM |
| O=C1Cc2cc(S(=O)(=O)NCc3ccc(Cl)cc3)ccc2N1 [RPM307, 2-Oxo-2,3-dihydro-1H-indole-5-sulfonic acid 4-chloro-benzylamide] | 39 ± 10% (20 at 20 μM |  |
